Peptide text beside a SMILES is read from it.
Legend:
[1] = system: human PC-3 tumor; test: Studies PC3-6 and PC3-12, human PC-3 prostate cancer nude mouse xenograft model; format: in vivo, nude mice
From the text: Studies PC3-6 and PC3-12 (FIGS. 26-27) are consecutive group experiments designed to characterize the in vivo activity of PCK3145 in the human PC-3 prostate cancer nude mouse xenograft model and to explore relationships between dose, route and schedule of administration and the efficacy parameters of tumor growth (volume).
PC-3 cells harvested in mid-log phase were inoculated at 5×10^6 cells per mice via the subcutaneous route in the mice's back area. Tumors grown from this inoculum were excised at approximately day 32 to 35 post-tumor implantation (p.t.i) when tumor volume reached 200-300 mm^3 (i.e., cu mm). The necrotic tissue was removed and the viable tumor mass cut into small pieces (approximately 1 to 3 mm^3) were implanted SC in the flank region at two opposite sites of the mouse. Treatment with various concentrations of PCK3145 was initiated at day 3 post-tumor implantation (p.t.i) and was continued daily for 21 days. Subcutaneous injections were done below tumor growth sites. Intra-peritoneal injections were performed in the abdominal region. Intra-venous injections were performed via the lateral tail vein. The experiment was terminated 24 hours after the last treatment. Tumor measurements were taken at Days 11, 14, 16, 18, 20, 22 and 24 post-tumor implantation (p.t.i). Tumor volumes were calculated according to formula (a×b^2×0.5), where a—is the length of the long diameter, and b—is the width of the perpendicular small diameter.
Study No: PC3-6 illustrates the efficacy of PCK3145, injected subcutaneously, in tumor growth retardation in Nude mice, which have received PC-3 implants. Mice were separated in different group each receiving various amounts of PCK3145 (SEQ ID NO: 5) or control reagents. The different groups used in these experiments are illustrated in table 6 below. Each group contained 10 mice. Doxorubicin was administered as single bolus intra-venous injection on days 3 and 11 post-tumor implantation (p.t.i).
Study No: PC3-12 illustrates the efficacy of PCK3145 in tumor growth retardation in Nude mice, which have received PC-3 implants. Mice were separated in different group each receiving various amounts of PCK3145 (SEQ ID NO: 5) or control reagents. PCK3145 was injected either through intra-venous or intra-peritoneal route. The different groups used in these experiments are illustrated in table 7 below. Each group contained 9 mice.

[2] = system: PC-3 cells; test: DNA fragmentation assay (DNA ladder, apoptosis); format: cell-based, human; settings: for DNA laddering effect: various concentrations
Procedure, shortened: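 PC-3 cells were exposed for 72 h to the polypeptides at various concentrations, PCK3145 at 500 μg/ml in supplemented medium; untreated cells and doxorubicin served as controls. Isolated DNA was run on 1.2% agarose with ethidium bromide, and a DNA ladder was scored as apoptotic fragmentation.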

[3] = system: PC-3 cells; test: [^3H]-Thymidine uptake assay; format: cell-based, human; settings: GMP grade
Method: The in vitro growth inhibition effect of rHuPSP94 was assessed using [^3H]-Thymidine uptake assay. [^3H]-Thymidine uptake assay involves [^3H]-Thymidine incorporation into cellular DNA of actively proliferating cells. It measures the proliferative index of the cells versus the MTS assay, which quantifies the number of lived cells following treatment. Cells were seeded in Costar 96 well cell culture flat bottom plates in RPMI supplemented media containing 50 μg/ml of bovine serum albumin (BSA) and 0.1 μM FeSO4. PC-3 cells were exposed to various concentrations of rHuPSP94 for 72 hours and during the final 16 hours of incubation cells were pulsed with 1 μCi of [^3H]-Thymidine. The radioactivity in each well of the plate is counted by a beta-counter and is expressed as total counts per minutes (cpm). Results of in vitro effect of rHuPSP94 on PC-3 cells using the ^3[H]-Thymidine uptake assay are summarized in Table 3 and are expressed as percentage of radioactivity measured for treated-cells relative to the radioactivity measured for non-treated cells (for which [^3H]-thymidine uptake value was set at 100%).
[^3H]-Thymidine uptake assay involves [^3H]-Thymidine incorporation into cellular DNA of actively proliferating cells. [^3H]-Thymidine uptake assay measures the proliferative index of the cells versus the MTS assay, which quantifies the number of lived cells following treatment. The anti-proliferative effects of PCK3145 and two other synthetic polypeptides derived from the amino and carboxy terminus ends of PSP94 (SEQ ID NO: 4 and NO: 6, respectively) as well as the decapeptide (SEQ ID NO: 3) previously shown to mimic the biological action of native PSP94 were assessed in [H3]-Thymidine uptake assay on PC-3 cells. Two separate experiments were conducted with GMP-grade PCK3145.

Compound	anti-tumor effect in the PC-3 nude mouse xenograft model ([1]; mouse, in vivo)	DNA laddering effect ([2]; 72 hours)	anti-tumor effect on subcutaneous injection at a site distant from tumor (scruff of the neck) ([1]; 10 μg/kg/day and 100 μg/kg/day)	tumor growth (volume), study PC3-6 ([1]; 10 μg/kg/day s.c. below tumor sites, daily for 21 days, p=0.001 to 0.002 vs PBS)	tumor growth (volume), study PC3-12 ([1]; 100 μg/kg/day intra-venous, days 13, 17 and 20)	tumor growth (volume), study PC3-12 ([1]; 10, 500 and 1000 μg/kg/day intra-venous)	tumor growth (volume), study PC3-12 ([1]; 500 and 1000 μg/kg/day intra-venous)	DNA laddering effect (FIG. 7 lane 5) ([2]; 22.5 μM)	DNA laddering effect (FIG. 7 lane 6) ([2]; 45 μM)	DNA fragmentation (FIG. 25) ([2]; 500 μg/ml, 72 hours, supplemented media)	reduction in [^3H]-Thymidine uptake ([3]; 200 μg/ml, first experiment)	inhibition of [^3H]-Thymidine uptake ([3]; 400 μg/ml, second experiment)
polypeptide 7-21: PSP94 derived synthetic polypeptide from the amino terminus end, SEQ ID NO: 4 (NEGVPGDSTRKCMDL; Polypeptide 7-21)	also observed in the PC-3 nude mouse xenograft model	induced a DNA laddering effect characteristic of apoptosis	–	–	–	–	–	–	–	–	–	–
C[C@@H](O)[C@H](NC(=O)[C@H](CCC(=O)O)NC(=O)[C@H](Cc1ccc(O)cc1)NC(=O)[C@H](CS)NC(=O)[C@@H](NC(=O)[C@H](CS)NC(=O)[C@@H](NC(=O)[C@H](CCC(=O)O)NC(=O)[C@H](CS)NC(=O)[C@H](CC(N)=O)NC(=O)[C@H](CC(=O)O)NC(=O)[C@@H](NC(=O)[C@H](CCC(N)=O)NC(=O)[C@H](Cc1c[nH]c2ccccc12)NC(=O)[C@@H](N)CCC(=O)O)[C@@H](C)O)[C@@H](C)O)[C@@H](C)O)C(=O)O [PCK3145, EWQTDNCETCTCYET] (H-EWQTDNCETCTCYET-OH; N-terminus and C-terminus assumed)	–	induced a DNA laddering effect characteristic of apoptosis	might not be efficacious enough	significant PC-3 tumor growth retardation	significant tumor growth retardation	No significant anti-tumor effect	trend towards significance	DNA laddering effect	DNA laddering effect	resulted in DNA fragmentation	~40%	25%

Source: patent publication US8551951B2, “Pharmaceutical preparations and methods for inhibiting tumors” (Aenorasis SA Pharmaceuticals and Medical Devices, priority 2000, dated 2013)
